US9403830B2, “Inhibitors of leukotriene production” (Boehringer Ingelheim International GmbH, priority 2012, dated 2016)

Experiments:
human LTA4 hydrolase = target: T1, human LTA4 hydrolase (Homo sapiens, UniProt P09960); test: LTA4H Enzyme assay (peptidase, Arg-AMC cleavage); format: biochemical; conditions: LTA4H enzyme 1 nM, Arg-AMC substrate 50 μM, room temperature 1 h, fluorescence 380/460 nm
T1 sequence (P09960 1-611): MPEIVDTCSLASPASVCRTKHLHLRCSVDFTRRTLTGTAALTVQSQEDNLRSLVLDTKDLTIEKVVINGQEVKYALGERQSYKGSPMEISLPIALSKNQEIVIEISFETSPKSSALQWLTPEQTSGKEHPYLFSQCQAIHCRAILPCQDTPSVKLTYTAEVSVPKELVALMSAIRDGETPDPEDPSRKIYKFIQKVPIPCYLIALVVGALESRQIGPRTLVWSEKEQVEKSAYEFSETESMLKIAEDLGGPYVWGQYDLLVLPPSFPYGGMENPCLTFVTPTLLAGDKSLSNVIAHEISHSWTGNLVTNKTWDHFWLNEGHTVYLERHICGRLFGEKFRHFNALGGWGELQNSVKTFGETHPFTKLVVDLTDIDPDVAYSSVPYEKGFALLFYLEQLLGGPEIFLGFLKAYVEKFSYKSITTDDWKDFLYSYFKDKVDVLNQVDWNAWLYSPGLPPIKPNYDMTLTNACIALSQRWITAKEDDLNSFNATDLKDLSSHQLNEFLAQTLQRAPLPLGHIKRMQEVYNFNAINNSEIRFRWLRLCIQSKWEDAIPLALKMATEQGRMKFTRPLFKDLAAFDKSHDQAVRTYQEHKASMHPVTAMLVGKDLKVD
In short: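 Human LTA4H (1 nM final) incubated with compound and Arg-AMC (50 μM final) in 50 mM Tris-HCl pH 7.5, 100 mM KCl, 0.5% BSA, 1 h at room temperature. Product read as AMC fluorescence (ex 380/em 460 nm); IC50 reported.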

[1] = tested on: LTB4 synthesis in human whole blood; test: human whole blood (HWB) assay, inhibition of LTB4 production; format: cell-based; conditions: heparinized human whole blood, calcimycin 20 μM stimulation, plasma LTB4
In short: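 Plasma LTB4, quantified by HTRF immunoassay, is the read-out after calcimycin challenge (20 μM final, 30 min, 37 °C) of heparinized whole blood that had been pretreated with compound for 15 min at 37 °C; values given as IC50.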

Row | SMILES | IC50 (human LTA4 hydrolase) | IC50 [1]
1 | NC(=O)C1CCN(CC2CCc3ccc(Oc4ccc(-c5ccn[nH]5)cn4)cc3O2)CC1 (stereo not drawn) [Example 9, 1-{7-[5-(2H-Pyrazol-3-yl)-pyridin-2-yloxy]-chroman-2-ylmethyl}-piperidine-4-carboxylic acid amide] | 4.2 nM | 1300 nM
2 | CC(=O)N1CC2CCC(C1)N2Cc1ccc2cc(Oc3ccc(-c4ccn[nH]4)cc3)ccc2n1 [Example 245, 1-(8-{6-[4-(2H-Pyrazol-3-yl)-phenoxy]-quinolin-2-ylmethyl}-3,8-diaza-bicyclo[3.2.1]oct-3-yl)-ethanone] | 0.18 nM | 170 nM
3 | CC(=O)N[C@@H]1C[C@H]2CC[C@@H](C1)N2Cc1ccc2cc(Oc3ccc(-c4ccn[nH]4)cc3)ccc2n1 [Example 248, N-((exo)-8-{6-[4-(2H-Pyrazol-3-yl)-phenoxy]-quinolin-2-ylmethyl}-8-aza-bicyclo[3.2.1]oct-3-yl)-acetamide] | 0.083 nM | 200 nM
4 | O=C1COCCN1C1CCN(Cc2ccc3cc(Oc4ccc(-c5ccn[nH]5)cn4)ccc3n2)CC1 [Example 211, 4-(1-{6-[5-(2H-Pyrazol-3-yl)-pyridin-2-yloxy]-quinolin-2-ylmethyl}-piperidin-4-yl)-morpholin-3-one] | 0.8 nM | 230 nM
5 | c1cc(-c2ccc(Cc3ccc4nc(CN5CCOCC5)cn4c3)cc2)[nH]n1 [Example 252, 2-Morpholin-4-ylmethyl-6-[4-(2H-pyrazol-3-yl)-benzyl]-imidazo[1,2-a]pyridine] | 0.93 nM | 250 nM
6 | CC(C)(O)C(=O)NC1CCN(CCn2cc3cc(Oc4ccc(-c5ccn[nH]5)cn4)ccc3n2)CC1 [Example 112, 2-Hydroxy-2-methyl-N-[1-(2-{5-[5-(2H-pyrazol-3-yl)-pyridin-2-yloxy]-indazol-2-yl}-ethyl)-piperidin-4-yl]-propionamide] | 2.1 nM | 280 nM
7 | N#CC1CCN(Cc2ccc3cc(Oc4ccc(-c5ccn[nH]5)cn4)ccc3n2)CC1 [Example 99, 1-{6-[5-(2H-pyrazol-3-yl)-pyridin-2-yloxy]-quinolin-2-ylmethyl}-piperidine-4-carbonitrile] | 0.93 nM | 170 nM
8 | CC(=O)N1CCN(Cc2ccc3cc(Oc4ccc(-c5ccn[nH]5)cn4)ccc3n2)[C@H](CO)C1 [Example 42, 1-((S)-3-Hydroxymethyl-4-{6-[5-(2H-pyrazol-3-yl)-pyridin-2-yloxy]-quinolin-2-ylmethyl}-piperazin-1-yl)-ethanone] | 0.88 nM | 360 nM
9 | NC(=O)[C@@H](NCc1ccc2cc(Oc3ccc(-c4ccn[nH]4)cn3)ccc2n1)c1ccccc1 [Example 51, (S)-2-Phenyl-2-({6-[5-(2H-pyrazol-3-yl)-pyridin-2-yloxy]-quinolin-2-ylmethyl}-amino)-acetamide] | 8.1 nM | 2200 nM
10 | COCCN(C)Cc1ccc2cc(Oc3ccc(-c4ccn[nH]4)cn3)ccc2n1 [Example 122, (2-Methoxy-ethyl)-methyl-{6-[5-(2H-pyrazol-3-yl)-pyridin-2-yloxy]-quinolin-2-ylmethyl}-amine] | 0.97 nM | 200 nM

The next lines start with the values.

Row | IC50 (human LTA4 hydrolase) | IC50 [1] | SMILES
11 | 0.17 nM | 89 nM | CC1CCN(Cc2nc3cc(Oc4ccc(-c5ccn[nH]5)cc4)ccc3[nH]2)CC1 [Example 153, 2-(4-Methyl-piperidin-1-ylmethyl)-5-[4-(2H-pyrazol-3-yl)-phenoxy]-1H-benzoimidazole]
12 | 0.054 nM | 170 nM | c1cc(-c2ccc(Oc3ccc4[nH]c(CN5C[C@H]6CC[C@@H](C5)O6)nc4c3)cc2)[nH]n1 [Example 227, 3-{5-[4-(2H-Pyrazol-3-yl)-phenoxy]-1H-benzoimidazol-2-ylmethyl}-8-oxa-3-aza-bicyclo[3.2.1]octane]
13 | 0.077 nM | 110 nM | COC[C@H](C)N(C)Cc1nc2cc(Oc3ccc(-c4ccn[nH]4)cc3)ccc2[nH]1 [Example 82, ((S)-2-Methoxy-1-methyl-ethyl)-methyl-{5-[4-(2H-pyrazol-3-yl)-phenoxy]-1H-benzoimidazol-2-ylmethyl}-amine]
14 | 0.4 nM | 210 nM | O=C(CO)N1C[C@H]2C[C@@H]1CN2Cc1ccc2cc(Oc3ccc(-c4ccn[nH]4)cn3)ccc2n1 [Example 145, 2-Hydroxy-1-((1R,4R)-5-{6-[5-(2H-pyrazol-3-yl)-pyridin-2-yloxy]-quinolin-2-ylmethyl}-2,5-diaza-bicyclo[2.2.1]hept-2-yl)-ethanone]
15 | 0.16 nM | 130 nM | COC[C@@H]1CCCN1Cc1nc2cc(Oc3ccc(-c4ccn[nH]4)cc3)ccc2[nH]1 [Example 173, 2-((S)-2-Methoxymethyl-pyrrolidin-1-ylmethyl)-5-[4-(2H-pyrazol-3-yl)-phenoxy]-1H-benzoimidazole]
16 | 0.1 nM | 71 nM | CCN(CC)Cc1nc2cc(Oc3ccc(-c4ccn[nH]4)cc3)ccc2[nH]1 [Example 152, Diethyl-{5-[4-(2H-pyrazol-3-yl)-phenoxy]-1H-benzoimidazol-2-ylmethyl}-amine]
17 | 0.22 nM | 86 nM | c1cc(-c2ccc(Oc3ccc4nc(CN5CCC5)ccc4c3)nc2)[nH]n1 [Example 21, 2-Azetidin-1-ylmethyl-6-[5-(2H-pyrazol-3-yl)-pyridin-2-yloxy]-quinoline]
18 | 0.21 nM | 150 nM | c1cc(-c2ccc(Oc3ccc4[nH]c(CNC5CCCOC5)nc4c3)cc2)[nH]n1 (stereo not drawn) [Example 181, {5-[4-(2H-Pyrazol-3-yl)-phenoxy]-1H-benzoimidazol-2-ylmethyl}-(tetrahydro-pyran-3-yl)-amine]
19 | 0.61 nM | 250 nM | CC(=O)NC1CC2CCC(C1)N2Cc1ccc2cc(Oc3ccc(-c4cc[nH]n4)cn3)ccc2n1 (stereo not drawn) [Example 238, N-((endo)-8-{6-[5-(1H-Pyrazol-3-yl)-pyridin-2-yloxy]-quinolin-2-ylmethyl}-8-aza-bicyclo[3.2.1]oct-3-yl)-acetamide]
20 | 0.21 nM | 140 nM | COCCN1CCN(Cc2nc3cc(Oc4ccc(-c5ccn[nH]5)cc4)ccc3[nH]2)CC1 [Example 61, 2-[4-(2-Methoxy-ethyl)-piperazin-1-ylmethyl]-5-[4-(2H-pyrazol-3-yl)-phenoxy]-1H-benzoimidazole]
21 | 0.24 nM | 84 nM | c1cc(-c2ccc(Oc3ccc4c(cnn4CCN4CCCC4)c3)cc2)[nH]n1 [Example 75, 5-[4-(2H-pyrazol-3-yl)-phenoxy]-1-(2-pyrrolidin-1-yl-ethyl)-1H-indazole]
22 | 0.22 nM | 95 nM | COCC1CCCN(Cc2nc3cc(Oc4ccc(-c5ccn[nH]5)cc4)ccc3[nH]2)C1 (stereo not drawn) [Example 156, 2-(3-Methoxymethyl-piperidin-1-ylmethyl)-5-[4-(2H-pyrazol-3-yl)-phenoxy]-1H-benzoimidazole]
23 | 0.14 nM | 240 nM | O[C@H]1CCN(Cc2nc3ccc(Oc4ccc(-c5ccn[nH]5)cc4)cc3[nH]2)C1 [Example 66, (S)-1-{6-[4-(2H-Pyrazol-3-yl)-phenoxy]-1H-benzoimidazol-2-ylmethyl}-pyrrolidin-3-ol]
24 | 0.17 nM | 150 nM | COCCN(Cc1nc2cc(Oc3ccc(-c4ccn[nH]4)cc3)ccc2[nH]1)C(C)C [Example 183, Isopropyl-(2-methoxy-ethyl)-{5-[4-(2H-pyrazol-3-yl)-phenoxy]-1H-benzoimidazol-2-ylmethyl}-amine]
